Laboratory results reported in patent US12077503B2, “Substituted cyclic amides and their use as herbicides” (FMC CORPORATION, priority 2015, dated 2024).

How the values were obtained:
Assay type in all cases: in vivo
Kochia (Kochia scoparia) [1] = experiment: Test A preemergence; settings: Bassia scoparia, pre-emergence, 240 h, 0 to 100 scale where 0 is no effect and 100 is complete control, read-out: Kochia plant response rating; for pest or weed control at 31 g/ha: 31 g ai/ha, Preemergence; for pest or weed control at 125 g/ha: 125 g ai/ha, preemergence, approx. 10 d
Outline: (§1)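 Ratings of 0 (no effect) to 100 (complete control) come from visual comparison with untreated controls roughly 10 d after treatment. Test chemicals, formulated in a non-phytotoxic solvent mixture with surfactant, were applied either as a preemergence directed soil spray on seeded soil or postemergence to one- to two-leaf plants 2 to 10 cm tall.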

[2] = test system: barnyardgrass (Echinochloa crus-galli); experiment: Test A preemergence; settings: Echinochloa crus-galli, pre-emergence, 240 h, 0 to 100 scale where 0 is no effect and 100 is complete control, read-out: Barnyardgrass plant response rating; for pest or weed control at 31 g/ha: 31 g ai/ha, Preemergence; for pest or weed control at 125 g/ha: 125 g ai/ha, preemergence, approx. 10 d
Outline: as §1

[3] = test system: giant foxtail (Setaria faberii); experiment: Test A preemergence; settings: Setaria faberi, pre-emergence, 240 h, 0 to 100 scale where 0 is no effect and 100 is complete control, read-out: Foxtail, Giant plant response rating; for pest or weed control at 31 g/ha: 31 g ai/ha, Preemergence; for pest or weed control at 125 g/ha: 125 g ai/ha, preemergence, approx. 10 d
Outline: as §1

[4] = test system: pigweed (Amaranthus retroflexus); experiment: Test A preemergence; settings: Amaranthus retroflexus, pre-emergence, 240 h, 0 to 100 scale where 0 is no effect and 100 is complete control, read-out: Pigweed plant response rating; for pest or weed control at 31 g/ha: 31 g ai/ha, Preemergence; for pest or weed control at 125 g/ha: 125 g ai/ha, preemergence, approx. 10 d
[5] = test system: ragweed (common ragweed, Ambrosia elatior); experiment: Test A preemergence; settings: Ambrosia artemisiifolia, pre-emergence, 240 h, 0 to 100 scale where 0 is no effect and 100 is complete control, read-out: Ragweed plant response rating; for pest or weed control at 31 g/ha: 31 g ai/ha, Preemergence; for pest or weed control at 125 g/ha: 125 g ai/ha, preemergence, approx. 10 d
Outline: as §1

[6] = test system: ryegrass, Italian (Italian ryegrass, Lolium multiflorum); experiment: Test A preemergence; settings: Lolium multiflorum, pre-emergence, 240 h, 0 to 100 scale where 0 is no effect and 100 is complete control, read-out: Ryegrass, Italian plant response rating; for pest or weed control at 31 g/ha: 31 g ai/ha, Preemergence; for pest or weed control at 125 g/ha: 125 g ai/ha, preemergence, approx. 10 d
Outline: as §1

Kochia (Kochia scoparia) [7] = experiment: Test A postemergence; settings: Bassia scoparia, post-emergence, 240 h; for pest or weed control at 125 g/ha: 125 g ai/ha, postemergence, visual injury on 0 to 100 scale (0 no effect, 100 complete control), approx. 10 d, read-out: Kochia plant response rating; for pest or weed control at 31 g/ha: Postemergence, 31 g ai/ha, visual injury after approx. 10 d, 0 to 100 scale, 0 no effect, 100 complete control, read-out: Plant response rating, Kochia
Outline: as §1

[8] = test system: barnyardgrass (Echinochloa crus-galli); experiment: Test A postemergence; settings: Echinochloa crus-galli, post-emergence, 240 h; for pest or weed control at 125 g/ha: 125 g ai/ha, postemergence, visual injury on 0 to 100 scale (0 no effect, 100 complete control), approx. 10 d, read-out: Barnyardgrass plant response rating; for pest or weed control at 31 g/ha: Postemergence, 31 g ai/ha, visual injury after approx. 10 d, 0 to 100 scale, 0 no effect, 100 complete control, read-out: Plant response rating, Barnyardgrass
Outline: as §1

[9] = test system: blackgrass (Alopecurus myosuroides); experiment: Test A postemergence; settings: Alopecurus myosuroides, post-emergence, 240 h; for pest or weed control at 125 g/ha: 125 g ai/ha, postemergence, visual injury on 0 to 100 scale (0 no effect, 100 complete control), approx. 10 d, read-out: Blackgrass plant response rating; for pest or weed control at 31 g/ha: Postemergence, 31 g ai/ha, visual injury after approx. 10 d, 0 to 100 scale, 0 no effect, 100 complete control, read-out: Plant response rating, Blackgrass
Outline: as §1

corn (Zea mays) = experiment: Test A postemergence; settings: Zea mays, post-emergence, 240 h; for plant injury at 125 g/ha: 125 g ai/ha, postemergence, visual injury on 0 to 100 scale (0 no effect, 100 complete control), approx. 10 d, read-out: Corn plant response rating; for Corn plant response rating (crop injury, 0 = no effect, 100 = complete kill) at 31 g/ha: Postemergence, 31 g ai/ha, visual injury after approx. 10 d, 0 to 100 scale, 100 complete control
Outline: as §1

[10] = test system: giant foxtail (Setaria faberii); experiment: Test A postemergence; settings: Setaria faberi, post-emergence, 240 h; for pest or weed control at 125 g/ha: 125 g ai/ha, postemergence, visual injury on 0 to 100 scale (0 no effect, 100 complete control), approx. 10 d, read-out: Foxtail, Giant plant response rating; for pest or weed control at 31 g/ha: Postemergence, 31 g ai/ha, visual injury after approx. 10 d, 0 to 100 scale, 0 no effect, 100 complete control, read-out: Plant response rating, Foxtail, Giant
Outline: as §1

[11] = test system: pigweed (Amaranthus retroflexus); experiment: Test A postemergence; settings: Amaranthus retroflexus, post-emergence, 240 h; for pest or weed control at 125 g/ha: 125 g ai/ha, postemergence, visual injury on 0 to 100 scale (0 no effect, 100 complete control), approx. 10 d, read-out: Pigweed plant response rating; for pest or weed control at 31 g/ha: Postemergence, 31 g ai/ha, visual injury after approx. 10 d, 0 to 100 scale, 0 no effect, 100 complete control, read-out: Plant response rating, Pigweed
Outline: as §1

[12] = test system: ragweed (common ragweed, Ambrosia elatior); experiment: Test A postemergence; settings: Ambrosia artemisiifolia, post-emergence, 240 h; for pest or weed control at 125 g/ha: 125 g ai/ha, postemergence, visual injury on 0 to 100 scale (0 no effect, 100 complete control), approx. 10 d, read-out: Ragweed plant response rating; for pest or weed control at 31 g/ha: Postemergence, 31 g ai/ha, visual injury after approx. 10 d, 0 to 100 scale, 0 no effect, 100 complete control, read-out: Plant response rating, Ragweed
Outline: as §1

[13] = test system: ryegrass, Italian (Italian ryegrass, Lolium multiflorum); experiment: Test A postemergence; settings: Lolium multiflorum, post-emergence, 240 h; for pest or weed control at 125 g/ha: 125 g ai/ha, postemergence, visual injury on 0 to 100 scale (0 no effect, 100 complete control), approx. 10 d, read-out: Ryegrass, Italian plant response rating; for pest or weed control at 31 g/ha: Postemergence, 31 g ai/ha, visual injury after approx. 10 d, 0 to 100 scale, 0 no effect, 100 complete control, read-out: Plant response rating, Ryegrass, Italian
Outline: as §1

[14] = test system: wheat (Triticum aestivum); experiment: Test A postemergence; settings: Triticum aestivum, post-emergence, 240 h; for plant injury at 125 g/ha: 125 g ai/ha, postemergence, visual injury on 0 to 100 scale (0 no effect, 100 complete control), approx. 10 d, read-out: Wheat plant response rating; for plant injury at 31 g/ha: Postemergence, 31 g ai/ha, visual injury after approx. 10 d, 0 to 100 scale, 0 no effect, 100 complete control, read-out: Plant response rating, Wheat
Outline: as §1

[15] = test system: barnyardgrass (Echinochloa crus-galli); experiment: Test B flooded paddy test; settings: Echinochloa crus-galli, 250 g ai/ha, Flood; 0 to 100 scale where 0 is no effect and 100 is complete control; read-out: Barnyardgrass plant response rating
Outline: (§2)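 Visual ratings (0 none to 100 complete control) are relative to untreated plants, taken 13–15 d after treatment in a greenhouse. Test material went straight into floodwater standing 3 cm above the soil, kept constant, on plants at the 2-leaf stage.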

[16] = test system: ducksalad (Heteranthera limosa); experiment: Test B flooded paddy test; settings: Heteranthera limosa, 250 g ai/ha, Flood; 0 to 100 scale where 0 is no effect and 100 is complete control; read-out: Ducksalad plant response rating
Outline: as §2

rice (Oryra sativa) = experiment: Test B flooded paddy test; settings: Oryza sativa, 250 g ai/ha, Flood; 0 to 100 scale where 0 is no effect and 100 is complete control; read-out: Rice plant response rating
Outline: as §2

[17] = test system: sedge, umbrella (small-flower umbrella sedge, Cyperus difformis); experiment: Test B flooded paddy test; settings: Cyperus difformis, 250 g ai/ha, Flood; 0 to 100 scale where 0 is no effect and 100 is complete control; read-out: Sedge, Umbrella plant response rating
Outline: as §2

Structure (SMILES): Cc1c(F)cccc1NC(=O)[C@H]1C(=O)N(C)C[C@@H]1c1cc(C(F)F)cs1 [Compound 1089]
- pest or weed control at 31 g/ha (Kochia (Kochia scoparia) [1]): 0%
- pest or weed control at 125 g/ha (Kochia (Kochia scoparia) [1]): 20%
- pest or weed control at 31 g/ha [2]: 90%
- pest or weed control at 125 g/ha [2]: 90%
- pest or weed control at 31 g/ha [3]: 100%
- pest or weed control at 125 g/ha [3]: 100%
- pest or weed control at 31 g/ha [4]: 0%
- pest or weed control at 125 g/ha [4]: 0%
- pest or weed control at 31 g/ha [5]: 0%
- pest or weed control at 125 g/ha [5]: 60%
- pest or weed control at 31 g/ha [6]: 0%
- pest or weed control at 125 g/ha [6]: 10%
- pest or weed control at 125 g/ha (Kochia (Kochia scoparia) [7]): 0%
- pest or weed control at 31 g/ha (Kochia (Kochia scoparia) [7]): 0%
- pest or weed control at 125 g/ha [8]: 90%
- pest or weed control at 31 g/ha [8]: 60%
- pest or weed control at 125 g/ha [9]: 30%
- pest or weed control at 31 g/ha [9]: 0%
- plant injury at 125 g/ha (corn (Zea mays)): 30%
- Corn plant response rating (crop injury, 0 = no effect, 100 = complete kill) at 31 g/ha (corn (Zea mays)): 0%
- pest or weed control at 125 g/ha [10]: 90%
- pest or weed control at 31 g/ha [10]: 80%
- pest or weed control at 125 g/ha [11]: 0%
- pest or weed control at 31 g/ha [11]: 0%
- pest or weed control at 125 g/ha [12]: 20%
- pest or weed control at 31 g/ha [12]: 0%
- pest or weed control at 125 g/ha [13]: 0%
- pest or weed control at 31 g/ha [13]: 0%
- plant injury at 125 g/ha [14]: 30%
- plant injury at 31 g/ha [14]: 0%
- pest or weed control at 250 g/ha [15]: 90%
- pest or weed control at 250 g/ha [16]: 85%
- pest or weed control at 250 g/ha (rice (Oryra sativa)): 0%
- pest or weed control at 250 g/ha [17]: 0%

Structure (SMILES): CN1C[C@H](c2cc(C(F)F)cs2)[C@@H](C(=O)Nc2cccc(F)c2C#N)C1=O [Compound 1092]
- pest or weed control at 31 g/ha (Kochia (Kochia scoparia) [1]): 70%
- pest or weed control at 125 g/ha (Kochia (Kochia scoparia) [1]): 0%
- pest or weed control at 31 g/ha [2]: 40%
- pest or weed control at 125 g/ha [2]: 90%
- pest or weed control at 31 g/ha [3]: 90%
- pest or weed control at 125 g/ha [3]: 100%
- pest or weed control at 31 g/ha [4]: 0%
- pest or weed control at 125 g/ha [4]: 0%
- pest or weed control at 31 g/ha [5]: 0%
- pest or weed control at 125 g/ha [5]: 40%
- pest or weed control at 31 g/ha [6]: 0%
- pest or weed control at 125 g/ha [6]: 0%
- pest or weed control at 125 g/ha (Kochia (Kochia scoparia) [7]): 20%
- pest or weed control at 31 g/ha (Kochia (Kochia scoparia) [7]): 0%
- pest or weed control at 125 g/ha [8]: 90%
- pest or weed control at 31 g/ha [8]: 50%
- pest or weed control at 125 g/ha [9]: 20%
- pest or weed control at 31 g/ha [9]: 0%
- plant injury at 125 g/ha (corn (Zea mays)): 0%
- Corn plant response rating (crop injury, 0 = no effect, 100 = complete kill) at 31 g/ha (corn (Zea mays)): 0%
- pest or weed control at 125 g/ha [10]: 90%
- pest or weed control at 31 g/ha [10]: 30%
- pest or weed control at 125 g/ha [11]: 20%
- pest or weed control at 31 g/ha [11]: 0%
- pest or weed control at 125 g/ha [12]: 50%
- pest or weed control at 31 g/ha [12]: 0%
- pest or weed control at 125 g/ha [13]: 0%
- pest or weed control at 31 g/ha [13]: 0%
- plant injury at 125 g/ha [14]: 0%
- plant injury at 31 g/ha [14]: 0%
- pest or weed control at 250 g/ha [15]: 60%
- pest or weed control at 250 g/ha [16]: 85%
- pest or weed control at 250 g/ha (rice (Oryra sativa)): 0%
- pest or weed control at 250 g/ha [17]: 0%
